Experimental data: patent US7575882B2, “Compositions and methods for identifying modulators of TRPV2” (Janssen Pharmaceutica N. V., priority 2005, dated 2009)
Read-outs that look alike come from different tables or passages of the source.

Key:
[1] = target: T1, rat TRPV2 (Rattus norvegicus, UniProt Q9WUD2, A713V/L151P/T158I); assay: FLIPR calcium mobilization assay in rat TRPV2-expressing HEK293 cells; assay type: cell-based
T1 construct: A cDNA fragment encoding the full-length rat TRPV2 was subcloned into pCI-neo; expressed in transfected cells
T1 sequence (Q9WUD2 1-761 L151P/T158I/A713V): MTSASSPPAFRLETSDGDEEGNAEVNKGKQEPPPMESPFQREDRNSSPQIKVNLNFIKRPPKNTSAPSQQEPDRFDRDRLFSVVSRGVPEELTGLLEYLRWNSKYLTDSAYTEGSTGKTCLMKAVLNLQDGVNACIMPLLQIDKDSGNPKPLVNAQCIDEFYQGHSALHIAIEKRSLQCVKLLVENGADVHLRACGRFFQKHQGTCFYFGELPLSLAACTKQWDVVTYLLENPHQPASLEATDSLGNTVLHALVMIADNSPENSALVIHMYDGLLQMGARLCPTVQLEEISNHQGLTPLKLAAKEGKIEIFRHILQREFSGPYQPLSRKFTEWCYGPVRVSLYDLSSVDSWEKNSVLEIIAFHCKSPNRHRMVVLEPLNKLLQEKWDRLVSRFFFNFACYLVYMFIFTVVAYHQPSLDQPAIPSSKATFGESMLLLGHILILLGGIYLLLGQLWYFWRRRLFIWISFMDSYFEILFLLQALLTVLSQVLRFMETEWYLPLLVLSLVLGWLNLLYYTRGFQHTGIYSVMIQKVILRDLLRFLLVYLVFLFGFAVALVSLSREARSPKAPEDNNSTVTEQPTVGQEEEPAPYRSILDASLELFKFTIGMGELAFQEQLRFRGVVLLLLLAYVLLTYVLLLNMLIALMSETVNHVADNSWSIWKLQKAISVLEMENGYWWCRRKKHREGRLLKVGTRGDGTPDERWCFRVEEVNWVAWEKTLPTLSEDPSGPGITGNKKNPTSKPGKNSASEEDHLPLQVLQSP
Procedure: A cDNA fragment encoding the full-length rat TRPV2 was subcloned into pCI-neo (Promega, Madison, Wis.) mammalian expression vector. The expression construct was then transfected into HEK293 cells with FuGene6 transfection reagent (Roche, Indianapolis, Ind.) according to the vendor's protocol. Stable cell lines were selected by growth in the presence of 400 μg/ml G418. Single G418 resistant clones were isolated and purified.
The rat TRPV2-expressing HEK293 cells were seeded in a 384-well plate at a concentration of 5×10^3 cells/well and incubated overnight at 37° C. The following day, the cells were loaded with buffer and calcium dye 3 (Molecular Devices, Sunnyvale, Calif.) in a final volume of 50 μl and incubated for 30 minutes at 37° C./5% CO2 followed by 30 additional minutes at room temperature. The fluorescence intensity was measured by a fluorescent plate reader (FLIPR) before, during and after the addition of test compounds.
All data was normalized to that observed for 100 μM Δ^9-THC.

[2] = tested on: deletion mutants of rat TRPV2; assay: Calcium mobilization in HEK293 cells expressing rat TRPV2 deletion mutants; assay type: cell-based; details: mutants lacking N-terminal 20, 32/33, 65/66 or C-terminal 11, 23, 32 residues
From the text: DNA molecules encoding the deletion mutants were amplified by PCR using the rat TRPV2 cDNA as the template. For amino-terminal deletions, a series N-terminal forward primers encoding an initiating methionine in frame with sequences matching adjacent regions of the desired start at residues G21 (mutant N20, SEQ ID NO:11), P33 (N32, SEQ ID NO:12), A66 (N65, SEQ ID NO:13) and V84 (N83, SEQ ID NO:14) paired with a C-terminal reverse primer were used for PCR amplification. While for carboxyl-terminal deletions, a forward N-terminal primer paired with a series C-terminal reverse primers ending at residues R706 (C51, SEQ ID NO:7), P729 (C32, SEQ ID NO:8), P738 (C23, SEQ ID NO:9) and E750 (C11, SEQ ID NO:10) with an in-frame stop codon at the terminal end of the open reading frame were used for amplification. After PCR amplification and purification, the DNA molecules encoding the deletion mutants were subcloned into the pCI-neo mammalian expression vector and the constructs were confirmed by DNA sequencing. […]
The deletion mutant constructs were then transfected into HEK293 cells using Fugene 6 reagent (Roche) as per the manufacturer's instructions. […] Calcium mobilization was triggered using Δ^9-THC or 2-APB or elevated temperature buffer and measured using either FLIPR or FLEX STATION instruments.

[3] = target: T2, rat and human TRPV2 chimera RHR (Rattus norvegicus, UniProt Q9WUD2, A398L/D418K/D570G/D595E/E431N/E493A/E569T/E577V/E585D/F395L/F429V/I422A/INS586GN/K566E/L151P/L436T/L450V/L461V/L478F/L485V/L503S/M468I/M492L/N571P/P420Q/P587G/P589Q/Q419K/R460H/R490C/R560Q/R563W/R617H/S416T/S424H/S425L/S504A/S564R/S573A/S592G/T428E/T494I/T576S/T580M/V402I/V409A/V543I/V575E/V581E/V621M/V635I/Y400N); assay: Calcium mobilization in HEK293 cells expressing TRPV2 chimera RHR; assay type: cell-based; details: transient expression in HEK293
T2 construct: expressed in transfected cells; host or cells: HEK293, transient, pCI-neo
Procedure: The deletion mutant constructs were then transfected into HEK293 cells using Fugene 6 reagent (Roche) as per the manufacturer's instructions. At 24 hours post-transfection, the cells were harvested and replated in fresh DMEM medium supplemented with 10% fetal bovine serum, 100 units/ml penicillin, and 100 μg/ml streptomycin. The cells were distributed onto poly-D-Lysine coated 96-or 384-well plates at a density of approximately 40,000 and 10,000 cells per well, respectively. At approximately 48 hours post-transfection, the medium was removed from the assay plate and replaced with Calcium 3 Dye Buffer (Molecular Devices) using the protocol available from the manufacturer. Calcium mobilization was triggered using Δ^9-THC or 2-APB or elevated temperature buffer and measured using either FLIPR or FLEX STATION instruments.
Based on the predicted topology and primary sequence features of TRPV2, TRPV2 are divided into 3 major domains: 1) the amino-terminal intracellular domain; 2) the transmembrane domain; and 3) the carboxyl-terminal intracellular domain. For a chimera, each domain can be of rat (R) or human (H) origin. Three rat and human TRPV2 chimera were constructed and tested herein. RRH (SEQ ID NO:15) was a chimera comprising rat 1-392 aa, rat 393-646 aa, and human 647-764 aa. RHR (SEQ ID NO:16) was a chimera comprising rat 1-392, human 391-646, and rat 647-761. HRR (SEQ ID NO:17) was a chimera comprising human 1-390, rat 393-646, and rat 647-761.
DNA molecules encoding the three rat and human TRPV2 chimeras were obtained by fusion PCR. First, DNA molecules encoding the desired TRPV2 domains were amplified by PCR using the rat or human TRPV2 cDNA as the template with synthetic primer DNA containing in-frame sequence that overlapped with the other species domain to be linked. After PCR amplification and purification, DNA molecules encoding the desired TRPV2 domains from human and rat were combined and used as templates for fusion PCR with primer DNA matching the 5′ and 3′ end sequences of the coding sequence for the full length TRPV2 chimera. […]

[4] = target: T3, human TRPV1 (Homo sapiens, UniProt Q8NER1); assay: FLIPR assay in HEK293 cells expressing human TRPV1; assay type: cell-based; details: Δ^9-THC 240 μM, cannabinol 600 μM, others 120 μM
T3 construct: expressed in transfected cells; host or cells: HEK293
Procedure: A selected number of cannabinoids were also tested against HEK293 cells expressing human TRPV1 and canine TRPM8 in the FLIRP assay.

[5] = target: CB2 receptor; details: cited from earlier work
[6] = 100 μM compound (anandamide 120 μM); normalized to 100 μM Δ^9-THC
[7] = FLIPR, rat TRPV2-expressing HEK293 cells; read-out: EC50 (activation of rat TRPV2)
[8] = HEK293; read-out: % Response (activation of rat TRPV2)

CCCCCCC(C)(C)c1cc(OC)c(C2C=C(CO)[C@H]3CC2C3(C)C)c(OC)c1 (stereo partly drawn) [HU-308]
Emax at 100 µM ([1]; HEK293, read-out: % Response (activation of rat TRPV2)): 10%

2-aminoethoxydiphenyl borate [2-APB]
% Response (activation of rat TRPV2) [1, 6]: 102% | EC50 [1, 7]: 8 µM | response of rat TRPV2 deletion mutants to the compound [2]: still active | response of chimera RHR to the compound [3]: active

CCCCCCCCCCCCCCCC(=O)NCCO [PEA, palmitoylethanolamide]
Emax at 100 µM [1, 8]: 5%

Cc1cc2cccc3c2n1C(CN1CCOCC1)[C@H](C(=O)c1cccc2ccccc12)O3 (stereo partly drawn) [WIN-55,212-2]
Emax at 100 µM [1, 8]: -2%

CCCn1c(C)c(C(=O)c2cccc3ccccc23)c2ccccc21 [JWH015]
Emax at 100 µM [1, 8]: 14%

CCCCCc1cc(O)c2c(c1)OC(C)(C)c1ccc(C)cc1-2 [Cannabinol]
EC50 [1, 7]: 77.7 µM | Emax at 100 µM [1, 8]: 68% | activation of TRPV1 [4]: no significant activation

CCCCC/C=C\C/C=C\C/C=C\C/C=C\CCCC(=O)NCCO [Anandamide, N-arachidonoylethanolamine]
activation effect on TRPV2 [1]: no or minimal activation effect | Emax at 100 µM [1, 8]: 0% | activation of TRPV1 [4]: activated | Ki [5]: 1.93 µM

Nabilone
% Response (activation of rat TRPV2) [1, 6]: 59%

C=C(C)[C@@H]1CCC(C)=C[C@H]1C1=C(O)C(=O)C(CCCCC)=CC1=O [HU-331]
EC50 [1, 7]: ~14 µM | Emax at 100 µM [1, 8]: 47%

Cannabidiol
% Response (activation of rat TRPV2) [1, 6]: 163% | EC50 [1, 7]: 3.7 µM

C=C(C)[C@@H]1CCC(C)=C[C@H]1c1c(O)cc(O)cc1CCCCC [CAY10429]
Emax at 100 µM [1, 8]: 0%

C=C(C)[C@@H]1CCC(C)=CC1c1c(OC)cc(C)cc1OC (stereo partly drawn) [O-1918]
Emax at 100 µM [1, 8]: 6%

CCCCCCC(C)(C)c1cc(O)c2c(c1)OC(C)(C)[C@H]1CC=C(CO)C[C@H]21 [HU-211]
Emax at 100 µM [1, 8]: 31%

CCCCC/C=C\C/C=C\C/C=C\C/C=C\CCCC(=O)Nc1ccc(O)cc1 [AM404]
Emax at 100 µM [1, 8]: 6% | activation of TRPV1 [4]: activated

CCCCC/C=C\C/C=C\C/C=C\C/C=C\CCCC(=O)OC(CO)CO [2-AG, 2-arachidonylglycerol]
Emax at 100 µM [1, 8]: 30% | activation of TRPV1 [4]: activated | Ki [5]: 1.4 µM

C=C(C)[C@@H]1CCC(C)=C[C@H]1c1c(O)cc(C)cc1O [O-1821]
EC50 [1, 7]: ~20 µM | Emax at 100 µM [1, 8]: 95%

CCCCCCC(C)(C)c1ccc(C2CC(O)CCC2CCCO)c(O)c1 (stereo not drawn) [CP55,940]
Emax at 100 µM [1, 8]: 43%

Cc1c(C(=O)c2cccc3ccccc23)c2cccc3c2n1C(CN1CCOCC1)CO3 (stereo not drawn) [WIN 55,212-3]
Emax at 100 µM [1, 8]: 7%

CCCC(C)(C)c1ccc2c(c1)OC(C)(C)[C@@H]1CC=C(C)C[C@@H]21 [JWH-133]
Emax at 100 µM [1, 8]: 5%
